Literature values, collected in US20110104272A1 (DEPOMED, INC., priority 2009, published 2011).

**Q.** Which “solubility in water (in words)” value does the source give for `CC(=O)Nc1ccc(O)cc1` [Acetaminophen, N-(4-hydroxyphenyl)acetamine] here?
**A.** Its value is “poorly soluble in water”.

**Q.** Which “solubility in water (in words)” value does the source give for `CNC[C@H](O)c1cccc(O)c1` [Phenylephrine, (R)-3-[-1-hydroxy-2-(methylamino)ethyl]phenol] here?
**A.** The value was “highly soluble in water”.
